Reference: paper PMC11375437, “Selective labelling of GBA2 in cells with fluorescent β-D-arabinofuranosyl cyclitol aziridines” (Chemical Science, 2024)
“And” between values parts separate entries of the source, which are not always exact repeats. Equal entries are not always repeated. Where two headings read alike, the source gives them in different places.

Target: T1, GBA2 (Homo sapiens, UniProt Q9HCG7)
T1 sequence (Q9HCG7 1-927): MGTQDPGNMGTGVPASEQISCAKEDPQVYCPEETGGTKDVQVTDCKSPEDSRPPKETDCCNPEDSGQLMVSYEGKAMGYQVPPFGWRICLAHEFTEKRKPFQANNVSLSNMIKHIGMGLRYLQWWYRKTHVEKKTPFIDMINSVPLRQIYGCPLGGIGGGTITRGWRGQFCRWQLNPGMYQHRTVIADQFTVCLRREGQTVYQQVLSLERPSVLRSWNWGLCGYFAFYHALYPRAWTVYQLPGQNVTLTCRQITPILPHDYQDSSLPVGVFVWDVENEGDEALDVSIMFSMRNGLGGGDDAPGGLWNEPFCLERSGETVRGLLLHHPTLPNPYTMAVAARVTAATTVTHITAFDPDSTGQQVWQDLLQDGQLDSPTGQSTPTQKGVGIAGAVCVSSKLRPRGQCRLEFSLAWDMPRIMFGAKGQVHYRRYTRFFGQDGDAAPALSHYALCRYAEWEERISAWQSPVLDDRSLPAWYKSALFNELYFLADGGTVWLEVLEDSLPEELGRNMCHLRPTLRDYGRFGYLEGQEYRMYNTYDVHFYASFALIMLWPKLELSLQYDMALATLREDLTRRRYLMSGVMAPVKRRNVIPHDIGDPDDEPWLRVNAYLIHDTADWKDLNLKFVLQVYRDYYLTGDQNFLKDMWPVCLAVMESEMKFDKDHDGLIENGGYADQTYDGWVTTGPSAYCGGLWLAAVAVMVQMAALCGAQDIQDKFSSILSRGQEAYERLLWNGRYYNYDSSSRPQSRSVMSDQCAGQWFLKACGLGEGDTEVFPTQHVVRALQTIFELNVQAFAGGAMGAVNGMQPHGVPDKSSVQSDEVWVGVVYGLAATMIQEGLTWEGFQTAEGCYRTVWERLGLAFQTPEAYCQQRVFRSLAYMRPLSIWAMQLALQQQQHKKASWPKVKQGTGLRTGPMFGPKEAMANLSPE
Assay: 4MU fluorogenic substrate assay for apparent IC50, GBA2
Type: biochemical
Set-up: expressed in transfected cells; host or cells: HEK293T GBA1/GBA2 KO (CRISPR/Cas9), GBA2 overexpressed
Conditions: 4MU-β-D-Glc
Text: To identify an ABP that selectively labels human GBA2 over GBA1 and GBA3, a library of cyclophellitol-based ABPs with varying configurations (ESI Fig. S1 ^†) was screened for their selectivity towards human retaining β-glucosidases. For this purpose, we initially assessed the inhibition properties of the compounds using recombinant human GBA1 (rhGBA1, imiglucerase), lysates of cells overexpressing GBA2 or GBA3 (both in combination with knockout of the other retaining β-glucosidases). In a preliminary screen, enzymes were pre-incubated for 30 min with the tested compounds, followed by the addition of the fluorogenic substrate, 4MU-β-D-Glc, and subsequent quantification of released fluorescent 4MU after 30 minutes. This screening brought our attention to a new set of β-D-Araf cyclitol aziridines as potential GBA2 inhibitors. […] On the other hand, the biotin-tagged β-D-Araf compound 6 is a poor inhibitor of all three glucosidases (apparent IC50 > 8 μM). Arabinofuranosyl cyclitol 12–20 with various configurations (α-L-Araf and β-L-Araf) were also evaluated (ESI Fig. S1 ^†).
Recombinant human GBA1 (rhGBA1, Imiglucerase) was kindly provided by Sanofi Genzyme (Cambridge, MA, USA). 4-Methylumbelliferyl-β-D-glucopyranoside substrates were purchase from Glycosynth (Warrington Cheshire, UK). Protein concentration was measured using the Pierce BCA assay kit (Thermo Fisher Scientific, Waltham, MA, USA). Harvested cells (cell pellets), cell lysates and tissue homogenates not used directly were stored at -80 °C.
HEK293T (CRL‐3216™) cells were purchased from ATCC (Manassas, VA, USA). HEK293T cells were cultured in DMEM medium (Sigma‐Aldrich), supplied with 10% (v/v) FCS, 0.1% (w/v) penicillin/streptomycin and 1% (v/v) Glutamax, under 37 °C and 5% or 7% CO2. […]
2.3 Generation of cells genetically modified for β-glucosidase expression For overexpression of the different β-glucosidases, "wildtype" HEK293T cells, HEK293T cells with GBA2 knockout (KO) or HEK293T cells with both GBA1 and GBA2 KO were used, following by the overexpression (OE) of targeted β-glucosidases using the constructs as described in references.1,2 Either GBA2 or GBA3 were overexpressed in GBA1/GBA2 KO HEK293T (generated by the CRISPR/Cas9 method2) to generate GBA1/2 KOs with GBA2 (or GBA3) for overexpression in HEK293T cells as indicated, or using "wildtype" HEK293T cells containing endogenous GBA1 and GBA2 to overexpress both GBA2 and GBA3, these were generated as described in our previous report.1,2 […]
Cells were cultured with the method described above to 80-90% confluency, and were isolated, washed with Dulbecco′s phosphate buffered saline (PBS) and subsequently collected using the following method.3 HEK293T and RPE-1 cells were easily detached from the culture plate by trypsin treatment after which some DMEM medium was added. The cells were collected by pipetting and DMEM medium was removed by centrifuging. The cells were washed with cold PBS three times, after which they were centrifuged to remove PBS and then stored at –80 °C for further use or lysed in potassium phosphate buffer (K2HPO4-KH2PO4, 25 mM, pH 6.5, supplemented with 0.1% (v/v) Triton X-100 and protease inhibitor cocktail (EDTA-free, Roche, Basel, Switzerland)) by sonication with a Polytron PT 1300D sonicator (Kinematica, Luzern, Switzerland). After sonication, lysed mixtures were centrifuged at 10,000 x g for 3 min at 4°C, and the supernatants where desired β-glucosidases exist were used for the experiment.
2.5 4MU fluorogenic substrate assay for apparent IC50 determination
4MU fluorogenic substrate assays (using recombination human rhGBA1 or lysates of HEK293T cells) were conducted in 96-well plates at 37 °C. Samples were diluted with McIlvaine buffer (150 mM citric acid-Na2HPO4) to a final volume of 25 μL, at the appropriate pH for each enzyme. Assays were performed by incubating the samples with 100 μL 4-methylumbelliferyl-β-D-glucopyranoside substrate diluted in McIlvaine buffer for a period of 30 min. […]

[1] = Apparent IC50 GBA2, GBA1/GBA2 KO GBA2 OE HEK293T cell lysate, 30 min pre-incubation, pH 5.8, n = 3 for β-D-Araf, n = 1 for α-L-Araf and β-L-Araf
[2] = GBA1/GBA2 KO GBA2 OE HEK293T cell lysate, 30 min pre-incubation, pH 5.8, n = 3 for β-D-Araf, n = 1 for α-L-Araf and β-L-Araf, read-out: Apparent IC50 GBA2

Compound	IC50 [1]	IC50 [2] [nM]	also measured
CC1=CC(C)=[N+]2C1=C(CCCCc1cn(CCCCCCCCN3[C@@H]4[C@H](CO)[C@@H](O)[C@H](O)[C@@H]43)nn1)c1c(C)cc(C)n1[B-]2(F)F (some centres unmarked) [ABP 3]	120 to 160 nM and 124 nM		
CN1/C(=C/C=C/C=C/C2=[N+](CCCCCC(=O)NCc3cn(CCCCCCCCN4[C@@H]5[C@H](CO)[C@@H](O)[C@H](O)[C@@H]54)nn3)c3ccccc3C2(C)C)C(C)(C)c2ccccc21 (some centres unmarked) [ABP 5]	250 to 300 nM and 264 nM		
OC[C@@H]1[C@@H](O)[C@H](O)[C@@H]2N[C@H]12 [Compound 1, β-D-Arabinofuranosyl cyclitol aziridine]		> 50000	IC50 (30 min pre-incubation, read-out: Apparent IC50 GBA2): > 50000 nM
COc1ccc(C2=[N+]3C(=C(CCCCc4cn(CCCCCCCCN5[C@@H]6[C@H](CO)[C@@H](O)[C@H](O)[C@@H]65)nn4)c4ccc(-c5ccc(OC)cc5)n4[B-]3(F)F)C=C2)cc1 (some centres unmarked) [ABP 4]	120 to 160 nM and 162 nM		
[N-]=[N+]=NCCCCCCCCN1[C@@H]2[C@H](CO)[C@@H](O)[C@H](O)[C@@H]21 (stereo partly drawn) [Compound 2, β-D-arabinofuranosyl cyclitol aziridine-azidooctyl]		630	
O=C(CCCC[C@@H]1SC[C@@H]2NC(=O)N[C@@H]21)NCc1cn(CCCCCCCCN2[C@@H]3[C@H](CO)[C@@H](O)[C@H](O)[C@@H]32)nn1 (some centres unmarked) [ABP 6]	8480 ± 763 nM		IC50 (Apparent IC50 GBA2, 30 min pre-incubation): > 8000 nM
